Assay results: US5998377A, “Means for treating prostate cancer” (ASTA Medica Aktiengesellschaft, priority 1998, dated 1999)
Non-standard residues stand in square brackets, D forms with d. Residues, ends and D or L forms follow the SMILES beside them. dPhe(4-Cl) = N[C@H](Cc1ccc(Cl)cc1)C(=O)O; d2Nal = N[C@H](Cc1ccc2ccccc2c1)C(=O)O; dCit = NC(=O)NCCC[C@@H](N)C(=O)O; d3Pal = N[C@H](Cc1cccnc1)C(=O)O

Key:
BPH patients [1] = assay: Clinical therapy of BPH with Cetrorelix (Example 1); assay type: in vivo, human; conditions: therapy regimen of 4 to 8 weeks
Experimental: The invention will be explained in detail using the following clinical results:
Cetrorelix is administered in a dose of 0.5 mg to 2 mg daily for 4 to 8 weeks for the therapy of BPH. A dose of 5 mg to 30 mg, dispensed once per week or every 10 days also over a time period of 4 to 8 weeks as well as one every two weeks or one injection per month of 20 mg to 60 mg can also decisively improve the clinical symptoms and signs. […] The prostate volume decreases by 20 to 40% during the treatment time of 4 to 8 weeks. […] In addition, at least 30% of the patients achieve an improvement of the urine flow of 6 ml/sec with this therapy. This is almost equivalent to an improvement like that associated with the golden standard operation, and in considerably shorter time. […] These clinical benefits continue for at least 3 to 6 months after therapy. This allows a long-term therapy of BPH with only an intermittent treatment of 2 to max. 4 injection cycles over 4 to 8 weeks.

[2] = test system: prostate carcinoma patients; conditions: cited from earlier work
BPH patients [3] = conditions: cited from earlier work
[4] = prostate carcinoma patients, end of the 6 weeks of therapy
[5] = BPH patients, 500 μg every 12 hours for 4 weeks

CC(=O)N[C@H](Cc1ccc2ccccc2c1)C(=O)N[C@H](Cc1ccc(Cl)cc1)C(=O)N[C@H](Cc1cccnc1)C(=O)N[C@@H](CO)C(=O)N[C@@H](Cc1ccc(O)cc1)C(=O)N[C@H](CCCNC(N)=O)C(=O)N[C@@H](CC(C)C)C(=O)N[C@@H](CCCNC(=N)N)C(=O)N1CCC[C@H]1C(=O)N[C@H](C)C(N)=O [Cetrorelix] (Ac-[d2Nal][dPhe(4-Cl)][d3Pal]SY[dCit]LRP[dA]-NH2)
increase of the peak flow of the urine (BPH patients [1]): approximately 3 ml/sec | patients achieving an improvement of the urine flow of 6 ml/sec (BPH patients [1]): at least 30% | quality of life (BPH patients [1]): significant improvements as regards quality of life | sexual performance (BPH patients [1]): No limitations in sexual performance are observed | testosterone decrease (BPH patients [1]): Submaximal decreases of testosterone occur, but these are above those levels associated with castration | testosterone levels, initially ([2]; prostate carcinoma patients (all patients), 500 μg every 12 hours, initially): lowering in testosterone levels to a castration level | overall condition of the patient [2, 4]: considerable improvement | testosterone values at the end of therapy [2, 4]: at the castration levels | testosterone levels, initially (BPH patients [3]; BPH patients (all patients), 500 μg every 12 hours, initially): lowering in testosterone levels to a castration level | prostate volume (BPH patients [3]; [5]): a decrease in prostate volume | symptoms of dysuria (BPH patients [3]; [5]): distinct decrease of the symptoms of dysuria | testosterone levels during treatment (BPH patients [3]; BPH patients, 500 μg every 12 hours for 4 weeks, no castration values during the last three weeks): fluctuated at subnormal levels
